Read-outs that look alike come from different tables or passages of the source.
Columns and labels:
EsaR [1] = molecular target: T1, EsaR (Pantoea stewartii subsp. stewartii, UniProt P54293); experiment: cell-based; details: for activation at 100 µM / inhibition at 100 µM: 3.5 h; for activation at 100 µM: read-out: EsaR-repressed (pesaR) [%] agonism; for inhibition at 100 µM: read-out: EsaR-repressed (pesaR) antagonism
T1 construct: expressed in transfected cells; host or cells: E. coli JLD271 (K12 ΔsdiA), arabinose-induced pJN105-esaR
T1 sequence (P54293 whole entry): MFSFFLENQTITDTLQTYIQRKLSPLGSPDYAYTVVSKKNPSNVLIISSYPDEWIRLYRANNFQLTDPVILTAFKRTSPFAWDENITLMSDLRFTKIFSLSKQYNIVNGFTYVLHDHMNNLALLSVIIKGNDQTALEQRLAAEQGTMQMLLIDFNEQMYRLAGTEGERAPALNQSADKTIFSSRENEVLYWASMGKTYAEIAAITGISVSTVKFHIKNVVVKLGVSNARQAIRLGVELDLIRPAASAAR
Description: (§1) EsaR transcriptional activation and repression were examined using E. coli and P. stewartii reporters (strains and plasmids listed in Table S1; see Methods section for assay details). […] We constructed reporters in E. coli based on previously reported EsaR reporters (Table S1). Each strain contained an EsaR expression plasmid (pJN105-esaR) and a reporter plasmid with either an EsaR-activated promoter (pesaS) or an EsaR-repressed promoter (pesaR) upstream of luxABCDE or GFP.
(§2) Gibson assembly was used to create all constructs. Plasmid pJN105-esaR was created by amplifying esaR from pAC-esaR and inserting it into pJN105. pesaSlux was created by inserting pesaS, amplified from pPesaR-AC:gfp, into the pCS-pesaRlux backbone. The pesaR promoter was amplified from pCS-pesaRlux and inserted into the pPesaR-AC:gfp backbone to create pesaR:GFP. P. stewartii reporter strains were created by transforming pesaR:GFP or pPesaR-AC:gfp into ESN51 by conjugation using E. coli S17 λpir as the donor strain. See SI for details of E. coli ExpR2 reporter construction.
(§3) Overnight cultures were diluted 1:10 in LB medium with appropriate antibiotics and grown at 37 °C (200 rpm) to an OD600 of 0.22–0.27 before induction with 4 mg mL^–1 arabinose. OD600 was measured by placing 200 μL of culture into a 96-well plate and reading optical density using the BioTek Synergy 2 plate reader. Assays were performed in technical triplicate in clear-bottom, white and clear-bottom, black 96-well microtiter plates (Corning Costar 3903 and 3904) for luminescence and fluorescence reporters, respectively. Compounds were dissolved in DMSO, and 2 μL of this stock, or DMSO as a negative control, was added to each well prior to adding 198 μL of induced culture. Plates were incubated at 37 °C (200 rpm) for 3.5 h. Each well was mixed by pipetting before reading OD600 and either luminescence or fluorescence. Single-point screens were performed with one or two biological replicates, and all dose–response curves were performed in biological triplicate. EC50 values were calculated based on a nonlinear regression of log(concentration) vs response (three parameters) using GraphPad Prism 9 software.

EsaR [2] = molecular target: T1, EsaR; experiment: cell-based; details: for activation at 100 µM / inhibition at 100 µM: 3.5 h; for activation at 100 µM: read-out: EsaR-activated (pesaS) [%] agonism; for inhibition at 100 µM: read-out: EsaR-activated (pesaS) antagonism; for EsaR agonism, in words: E. coli EsaR reporters, primary screen at 100 μM
Description: as §1, §2, §3

LuxR = details: cited from earlier work; for LuxR antagonism: 5 µM compound against 5 µM OHHL, negative values indicate potential activators, ref 6 (SI; Palmer et al., 2011); for LuxR [%] (agonism, activation): compounds at 200 μM, luminescence in V. fischeri ES114 (ΔluxI), ref Palmer et al., 2011 (main ref 44, SI ref 6)
ExpR1 = details: cited from earlier work; for ExpR1 antagonism: 5 µM compound against 5 µM OHHL, negative values indicate potential activators, ref 6 (SI; Palmer et al., 2011); for ExpR1 [%] (agonism, activation): compounds at 200 μM, cellulase activity in P. versatile AC5117, ref Palmer et al., 2011 (main ref 44, SI ref 6)
ExpR2 = details: cited from earlier work; for ExpR2 antagonism (percent inhibition): 5 µM compound against 5 µM OHHL, negative values indicate potential activators; for ExpR2 [%] (agonism, percent activation): compounds at 200 μM, cellulase activity in P. versatile AC5099, ref Palmer et al., 2011 (main ref 44, SI ref 6)
[3] = ref 6 (SI; Palmer et al., 2011)

Structure (SMILES) | EC50 (EsaR [1]) | activation at 100 µM (EsaR [1]) | inhibition at 100 µM (EsaR [1]) | EC50 (EsaR [2]) | activation at 100 µM (EsaR [2]) | inhibition at 100 µM (EsaR [2]) | LuxR antagonism (LuxR) | LuxR [%] (agonism, activation) (LuxR) | ExpR1 antagonism (ExpR1) | ExpR1 [%] (agonism, activation) (ExpR1) | ExpR2 antagonism (percent inhibition) (ExpR2; [3]) | ExpR2 [%] (agonism, percent activation) (ExpR2) | EsaR agonism, in words (EsaR [2]) | fold less potent than OHHL in EsaR (EC50 ratio) (EsaR [2]; E. coli EsaR-activated reporter EC50 values) | IC50 (ExpR2; previously reported phenotypic reporter data, ref 6 (SI; Palmer et al., 2011))
O=C(Cc1cccc(Cl)c1)N[C@H]1CCOC1=O [C6] | ≥ 216 µM | 29% | -58% | ≥ 125 µM | 49% | -40% | 65% | 61% | 63% | 49% | 54% | 81% |  |  | 
O=C(Cc1ccccc1Cl)N[C@H]1CCOC1=O [C7] |  | 5% | -26% |  | 10% | 1% | 53% | 6% | 57% | 9% | 41% | 28% |  |  | 
O=C(Cc1cccc(Br)c1)N[C@H]1CCOC1=O [C8] |  | 30% | -65% |  | 55% | -43% | 68% | 70% | 73% | 63% | 59% | 97% |  |  | 
O=C(Cc1ccccc1Br)N[C@H]1CCOC1=O [C9] |  | 0.4% | -14% |  | -2% | -8% | 47% | 12% | 49% | 9% | 32% | 32% |  |  | 
O=C(Cc1cccc(I)c1)N[C@H]1CCOC1=O [C11, 3-iodo PHL] |  | 44% | -56% |  | 65% | -57% | 78% | 28% | 83% | 32% | 63% | 61% | agonized EsaR | ~300 fold | 
O=C(Cc1ccccc1I)N[C@H]1CCOC1=O [C12] |  | 9% | 4% |  | -9% | -12% | 63% | 7% | 65% | 11% | 55% | 24% |  |  | 
O=C(Cc1ccc([N+](=O)[O-])cc1)N[C@H]1CCOC1=O [C13] |  | 14% | 12% |  | 14% | -29% | 47% | 24% | 44% | 15% | 32% | 24% |  |  | 
O=C(Cc1ccccc1[N+](=O)[O-])N[C@H]1CCOC1=O [C15] |  | -1% | 0% |  | -10% | -6% | 23% | 4% | 27% | 9% | 3% | 19% |  |  | 
CCCCCCCCCC(=O)N[C@H]1CCOC1=O [DHL, reference compound] |  | 4% | -59% |  | 17% | -11% | 96% | 12% | 91% | 6% | 76% | 44% |  |  | 0.9 µM
Cc1cccc(CC(=O)N[C@H]2CCOC2=O)c1 [E1] |  | 12% | 2% |  | 25% | 1% | 78% | 5% | 74% | 6% | 62% | 13% |  |  | 
COc1cccc(CC(=O)N[C@H]2CCOC2=O)c1 [E2] |  | 3% | -42% |  | 4% | 0% | 71% | 7% | 68% | 4% | 59% | 24% |  |  | 
CSc1cccc(CC(=O)N[C@H]2CCOC2=O)c1 [E7, 3-SCH3 PHL] |  | 11% | -3% |  | 23% | -26% | 88% | 4% | 79% | 0% | 71% | 13% | nearly inactive |  | 
O=C(Cc1cc(C(F)(F)F)cc(C(F)(F)F)c1)N[C@H]1CCOC1=O [E9] |  | 41% | -17% |  | 60% | -67% | 0% | 107% | 4% | 9% | 16% | 15% |  |  | 

Source: PMC12459020, “Chemical Probes that Target a Dissociative LuxR-Type Quorum Sensing Receptor in Gram-Negative Bacteria” (ACS Chemical Biology, 2025)
